Reference: US20210267203A1, “PESTICIDALLY ACTIVE AZOLE-AMIDE COMPOUNDS” (SYNGENTA PARTICIPATIONS AG, priority 2018, published 2021)

Assays:
Format in all cases: in vivo
[1] = test system: Spodoptera littoralis (Egyptian Cotton Leaf Worm); test: Example B10: Spodoptera littoralis (Egyptian cotton leaf worm), uptake by lettuce roots from agar, eggs; settings: 144 h, test rate 12.5 ppm, lettuce root uptake, 6 days after infestation, read-out: effect in at least one of the three categories (mortality, anti-feeding, or growth inhibition)
From the text: Example B10: Spodoptera littoralis (Egyptian Cotton Leaf Worm)
Test compounds were applied by pipette from 10,000 ppm DMSO stock solutions into 24-well plates and mixed with agar. Lettuce seeds were placed onto the agar and the multi well plate was closed by another plate which contained also agar. After 7 days the compound was absorbed by the roots and the lettuce grew into the lid plate. The lettuce leaves were then cut off into the lid plate. Spodoptera eggs were pipetted through a plastic stencil onto a humid gel blotting paper and the lid plate was closed with it. The samples were assessed for mortality, anti-feedant effect and growth inhibition in comparison to untreated samples 6 days after infestation.
The following compounds gave an effect of at least 80% in at least one of the three categories (mortality, anti-feeding, or growth inhibition) at a test rate of 12.5 ppm: […]

[2] = test system: Diabrotica Balteata (Corn Root Worm); test: Example B1: Diabrotica balteata (corn root worm), maize sprouts sprayed, L2 larvae; settings: 96 h, application rate 200 ppm, 4 days after infestation, read-out: effect in at least one of the two categories (mortality or growth inhibition)
Outline: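 Maize sprouts on agar sprayed with aqueous dilutions of 10,000 ppm DMSO stocks, dried, then infested with 6–10 L2 larvae per well. Mortality and growth inhibition scored against untreated samples 4 days after infestation; rates of 200 ppm.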

[3] = test system: Plutella xylostella (Diamond Back Moth); test: Example B5: Plutella xylostella (diamond back moth), artificial diet, 24-well, eggs; settings: 192 h, application rate 200 ppm, 8 days after infestation, read-out: effect in at least one of the two categories (mortality or growth inhibition)
Outline: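 Artificial diet in 24-well plates treated with aqueous dilutions of 10,000 ppm DMSO stocks, dried, then infested with Plutella eggs. Mortality and growth inhibition scored against untreated samples 8 days after infestation; activity rated at 200 ppm application rate.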

[4] = test system: Myzus persicae (Green Peach Aphid); test: Example B13: activity against Myzus persicae (green peach aphid), 96-well sucrose solution; settings: 120 h, application rate 50 ppm, 5 days after infestation
Outline: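 Compounds, from 10,000 ppm DMSO stocks, mixed into sucrose solution in wells under stretched Parafilm, with aphids placed on the membrane in an inverted feeding setup. Mortality scored 5 days after infestation.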

[5] = test system: Spodoptera littoralis (Egyptian Cotton Leaf Worm); test: Example B9: Spodoptera littoralis (Egyptian cotton leaf worm), cotton leaf discs sprayed, L1 larvae; settings: foliar, 72 h, application rate 200 ppm, 3 days after infestation
Outline: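 Leaf discs on agar sprayed with aqueous dilutions from 10,000 ppm DMSO stock, dried, then infested with five L1 larvae. Mortality, anti-feeding and growth inhibition scored against untreated samples 3 days after infestation; control counted when any category exceeds untreated.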

[6] = test system: Plutella xylostella (Diamondback Moth); test: Example B14: activity against Plutella xylostella (diamondback moth), 96-well artificial diet; settings: 216 h, application rate 500 ppm, 9 days after infestation
Outline: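 Diet in 96-well plates was treated with aqueous dilutions of 10,000 ppm DMSO stocks, dried, and infested with 30 eggs per well via a netted lid; hatching L1 larvae fed on the diet. Mortality scored 9 days after infestation.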

[7] = test system: Myzus persicae (Green Peach Aphid); test: Example B6: Myzus persicae (green peach aphid), feeding/contact activity; settings: 144 h, application rate 200 ppm, 6 days after infestation
Protocol: Example B6: Myzus persicae (Green Peach Aphid):Feeding/Contact Activity
(§1) Sunflower leaf discs were placed onto agar in a 24-well microtiter plate and sprayed with aqueous test solutions prepared from 10,000 ppm DMSO stock solutions. After drying, the leaf discs were infested with an aphid population of mixed ages. The samples were assessed for mortality 6 days after infestation.

[8] = test system: Myzus persicae (Green Peach Aphid); test: Example B8: Myzus persicae (green peach aphid), intrinsic activity; settings: 120 h, test rate 12 ppm, sucrose solution, 24-well, 5 days after infestation
Outline: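 Compounds diluted from 10,000 ppm DMSO stock were mixed with sucrose solution under stretched Parafilm in a sachet feeding setup, with aphid-infested pea seedlings placed on the membrane. Mortality was scored 5 days after infestation.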

[9] = test system: Thrips tabaci (Onion Thrips); test: Example B12: Thrips tabaci (onion thrips), feeding/contact activity; settings: 144 h, application rate 200 ppm, mixed ages, 6 days after infestation
Protocol: Example B12: Thrips tabaci (Onion Thrips) Feeding/Contact Activity
as §1, with “on” for “onto”, “in” for “in a”, “plates” for “plate”, “drying” for “drying,”, “a thrips” for “an aphid”

[10] = test system: Chilo suppressalis (Striped Rice Stemborer); test: Example B4: Chilo suppressalis (striped rice stemborer), artificial diet, L2 larvae; settings: 144 h, application rate 200 ppm, 6 days after infestation
Outline: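 L2 larvae (6-8 per well) placed on artificial diet treated with aqueous test solutions prepared from 10,000 ppm DMSO stocks, after drying. Mortality, anti-feeding and growth inhibition scored against untreated samples 6 days after infestation; control means at least one category exceeds untreated.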

[11] = test system: Myzus persicae (Green Peach Aphid); test: Example B7: Myzus persicae (green peach aphid), systemic activity; settings: 144 h, test rate 24 ppm, pea seedling roots in test solution, 6 days
Protocol: Example B7: Myzus persicae (Green Peach Aphid), Systemic Activity
Roots of pea seedlings infested with an aphid population of mixed ages were placed directly into aqueous test solutions prepared from 10,000 DMSO stock solutions. The samples were assessed for mortality 6 days after placing seedlings into test solutions.

[12] = test system: Euschistus heros (Neotropical Brown Stink Bug); test: Example B2: Euschistus heros (neotropical brown stink bug), soybean leaves sprayed, N2 nymphs; settings: 120 h, application rate 200 ppm, 5 days after infestation, read-out: effect in at least one of the two categories (mortality or growth inhibition)
Outline: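 Soybean leaves on agar sprayed with aqueous test solutions made from 10,000 ppm DMSO stocks, dried, then infested with N2 nymphs. Mortality and growth inhibition scored versus untreated samples 5 days after infestation; activity threshold at 200 ppm.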

CC(c1ncnn1-c1ncccn1)N(CC1CC1)C(=O)c1cc(C2CC2(F)F)cc(C(F)(F)F)c1 (stereo not drawn) [P50, N-(cyclopropylmethyl)-3-(2,2-difluorocyclopropyl)-N-[1-(2-pyrimidin-2-yl-1,2,4-triazol-3-yl)ethyl]-5-(trifluoromethyl)benzamide]
≥ 80%: percent effect (mortality, anti-feeding or growth inhibition) at 12.5 ppm [1] | percent effect (mortality or growth inhibition) at 200 ppm [2] | percent effect (mortality or growth inhibition) at 200 ppm [3] | mortality at 50 ppm [4] | percent control (mortality, anti-feedant effect or growth inhibition) at 200 ppm [5] | mortality at 500 ppm [6] | mortality at 200 ppm [7] | mortality at 12 ppm [8] | mortality at 200 ppm [9] | percent control (mortality, anti-feedant effect or growth inhibition) at 200 ppm [10]

CC(NC(=O)c1cc(C(F)(F)F)cc(C(C)(C)C#N)c1)c1ncnn1-c1ncccn1 (stereo not drawn) [P84, 3-(1-cyano-1-methyl-ethyl)-N-[1-(2-pyrimidin-2-yl-1,2,4-triazol-3-yl)ethyl]-5-(trifluoromethyl)benzamide]
≥ 80%: mortality at 24 ppm [11] | percent effect (mortality or growth inhibition) at 200 ppm [2] | percent effect (mortality or growth inhibition) at 200 ppm [3] | percent control (mortality, anti-feedant effect or growth inhibition) at 200 ppm [5] | percent effect (mortality or growth inhibition) at 200 ppm [12] | mortality at 12 ppm [8] | percent control (mortality, anti-feedant effect or growth inhibition) at 200 ppm [10]

Cc1nc(C(C)NC(=O)c2cc(C(F)(F)F)cc(C(C)(C)C#N)c2)n(-c2ncccn2)n1 (stereo not drawn) [P82, 3-(1-cyano-1-methyl-ethyl)-N-[1-(5-methyl-2-pyrimidin-2-yl-1,2,4-triazol-3-yl)ethyl]-5-(trifluoromethyl)benzamide]
≥ 80%: mortality at 24 ppm [11] | percent effect (mortality or growth inhibition) at 200 ppm [2] | percent effect (mortality or growth inhibition) at 200 ppm [3] | percent control (mortality, anti-feedant effect or growth inhibition) at 200 ppm [5] | percent effect (mortality or growth inhibition) at 200 ppm [12] | mortality at 200 ppm [7] | mortality at 12 ppm [8] | percent control (mortality, anti-feedant effect or growth inhibition) at 200 ppm [10]

CC(c1ncnn1-c1ncccn1)N(CC1CC1)C(=O)c1cc([S+]([O-])C(F)(F)F)cc(C(F)(F)F)c1 (stereo not drawn) [P26, N-(cyclopropylmethyl)-N-[1-(2-pyrimidin-2-yl-1,2,4-triazol-3-yl)ethyl]-3-(trifluoromethyl)-5-(trifluoromethylsulfinyl)benzamide]
≥ 80%: percent effect (mortality, anti-feeding or growth inhibition) at 12.5 ppm [1] | mortality at 24 ppm [11] | percent effect (mortality or growth inhibition) at 200 ppm [2] | percent effect (mortality or growth inhibition) at 200 ppm [3] | mortality at 50 ppm [4] | percent control (mortality, anti-feedant effect or growth inhibition) at 200 ppm [5] | mortality at 500 ppm [6] | percent effect (mortality or growth inhibition) at 200 ppm [12] | mortality at 200 ppm [7] | mortality at 12 ppm [8] | mortality at 200 ppm [9] | percent control (mortality, anti-feedant effect or growth inhibition) at 200 ppm [10]

CC(c1ncnn1-c1ncccn1)N(CC1CC1)C(=O)c1cc(C(F)(F)F)cc(C(F)(F)C2CC2)c1 (stereo not drawn) [P49, 3-[cyclopropyl(difluoro)methyl]-N-(cyclopropylmethyl)-N-[1-(2-pyrimidin-2-yl-1,2,4-triazol-3-yl)ethyl]-5-(trifluoromethyl)benzamide]
≥ 80%: percent effect (mortality, anti-feeding or growth inhibition) at 12.5 ppm [1] | percent effect (mortality or growth inhibition) at 200 ppm [2] | percent effect (mortality or growth inhibition) at 200 ppm [3] | mortality at 50 ppm [4] | percent control (mortality, anti-feedant effect or growth inhibition) at 200 ppm [5] | mortality at 500 ppm [6] | percent effect (mortality or growth inhibition) at 200 ppm [12] | mortality at 12 ppm [8] | mortality at 200 ppm [9] | percent control (mortality, anti-feedant effect or growth inhibition) at 200 ppm [10]

CC(c1ncnn1-c1ncccn1)N(CC1CC1)C(=O)c1cc(C2CC2C(F)(F)F)cc(C(F)(F)F)c1 (stereo not drawn) [P42, N-(cyclopropylmethyl)-N-[1-(2-pyrimidin-2-yl-1,2,4-triazol-3-yl)ethyl]-3-(trifluoromethyl)-5-[2-(trifluoromethyl)cyclopropyl]benzamide]
≥ 80%: percent effect (mortality, anti-feeding or growth inhibition) at 12.5 ppm [1] | percent effect (mortality or growth inhibition) at 200 ppm [2] | percent effect (mortality or growth inhibition) at 200 ppm [3] | mortality at 50 ppm [4] | percent control (mortality, anti-feedant effect or growth inhibition) at 200 ppm [5] | mortality at 500 ppm [6] | percent effect (mortality or growth inhibition) at 200 ppm [12] | mortality at 200 ppm [7] | mortality at 12 ppm [8] | mortality at 200 ppm [9] | percent control (mortality, anti-feedant effect or growth inhibition) at 200 ppm [10]

CC(c1ncnn1-c1ncccn1)N(CC1CC1)C(=O)c1cc(C(F)(F)F)cc(C2(C#N)CC2)c1 (stereo not drawn) [P46, 3-(1-cyanocyclopropyl)-N-(cyclopropylmethyl)-N-[1-(2-pyrimidin-2-yl-1,2,4-triazol-3-yl)ethyl]-5-(trifluoromethyl)benzamide]
≥ 80%: mortality at 24 ppm [11] | percent effect (mortality or growth inhibition) at 200 ppm [2] | percent effect (mortality or growth inhibition) at 200 ppm [3] | mortality at 50 ppm [4] | percent control (mortality, anti-feedant effect or growth inhibition) at 200 ppm [5] | mortality at 500 ppm [6] | percent effect (mortality or growth inhibition) at 200 ppm [12] | mortality at 200 ppm [7] | mortality at 12 ppm [8] | mortality at 200 ppm [9]

CC(NC(=O)c1cc(C2CC2C(F)(F)F)cc(C(F)(F)F)c1)c1ncnn1-c1ncccn1 (stereo not drawn) [P25, N-[1-(2-pyrimidin-2-yl-1,2,4-triazol-3-yl)ethyl]-3-(trifluoromethyl)-5-[2-(trifluoromethyl)cyclopropyl]benzamide]
≥ 80%: percent effect (mortality, anti-feeding or growth inhibition) at 12.5 ppm [1] | percent effect (mortality or growth inhibition) at 200 ppm [2] | percent effect (mortality or growth inhibition) at 200 ppm [3] | mortality at 50 ppm [4] | percent control (mortality, anti-feedant effect or growth inhibition) at 200 ppm [5] | mortality at 500 ppm [6] | percent effect (mortality or growth inhibition) at 200 ppm [12] | mortality at 12 ppm [8] | mortality at 200 ppm [9] | percent control (mortality, anti-feedant effect or growth inhibition) at 200 ppm [10]

CC(c1ncnn1-c1ncccn1)N(CC1CC1)C(=O)c1cc(C(F)(F)F)cc(C(C)(C)C#N)c1 (stereo not drawn) [P35, 3-(1-cyano-1-methyl-ethyl)-N-(cyclopropylmethyl)-N-[1-(2-pyrimidin-2-yl-1,2,4-triazol-3-yl)ethyl]-5-(trifluoromethyl)benzamide]
≥ 80%: mortality at 24 ppm [11] | percent effect (mortality or growth inhibition) at 200 ppm [2] | percent effect (mortality or growth inhibition) at 200 ppm [3] | mortality at 50 ppm [4] | percent control (mortality, anti-feedant effect or growth inhibition) at 200 ppm [5] | mortality at 500 ppm [6] | percent effect (mortality or growth inhibition) at 200 ppm [12] | mortality at 12 ppm [8] | mortality at 200 ppm [9]
